{"source": "ChEMBL document CHEMBL6109152", "about": "“Harnessing the SPOP E3 Ubiquitin Ligase via a Bridged Proteolysis Targeting Chimera (PROTAC) Strategy for Targeted Protein Degradation” (J Med Chem, 2025)", "key": {"[1]": {"biological_target": "T1, Speckle-type POZ protein-Bromodomain-containing protein 4 (Homo sapiens, UniProt O60885+O43791)", "T1 sequence (O43791 whole entry, looked up, other chains not shown, canonical isoform)": "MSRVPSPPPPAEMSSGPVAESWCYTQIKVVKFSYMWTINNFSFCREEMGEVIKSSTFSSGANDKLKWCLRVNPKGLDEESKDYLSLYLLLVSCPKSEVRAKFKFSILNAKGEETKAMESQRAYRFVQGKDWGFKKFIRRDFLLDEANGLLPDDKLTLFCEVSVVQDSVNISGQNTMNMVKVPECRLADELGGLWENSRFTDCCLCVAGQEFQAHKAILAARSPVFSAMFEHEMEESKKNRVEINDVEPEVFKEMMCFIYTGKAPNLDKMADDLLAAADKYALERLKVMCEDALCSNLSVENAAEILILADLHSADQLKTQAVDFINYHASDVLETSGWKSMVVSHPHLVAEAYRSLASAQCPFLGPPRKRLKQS", "assay": "PROTAC activity at SPOP/BRD4-S in human HT-29 cells assessed as induction of BRD4 short isoform degradation incubated for 24 hrs by Western blotting analysis", "assay_type": "cell-based"}, "[2]": {"biological_target": "T2, Bromodomain-containing protein 4 (Homo sapiens, UniProt O60885)", "assay": "Binding affinity to BRD4-BD2 domain (unknown origin) assessed as assessed as dissociation constant by ITC analysis"}, "[3]": {"biological_target": "T1, Speckle-type POZ protein-Bromodomain-containing protein 4", "assay": "PROTAC activity at SPOP/BRD4-S in human HT-29 cells assessed as induction of BRD4 short isoform degradation by measuring maximal efficacy at 0.156 to 10 uM incubated for 24 hrs by Western blotting analysis relative to control", "assay_type": "cell-based", "settings": "dose 0.156-10 µM"}, "[4]": {"biological_target": "T1, Speckle-type POZ protein-Bromodomain-containing protein 4", "assay": "PROTAC activity at SPOP/BRD4-L in human HT-29 cells assessed as induction of BRD4 long isoform degradation by measuring fold change at 0.156 uM incubated for 24 hrs by Western blotting analysis (reference value: 1.00)", "assay_type": "cell-based"}, "[5]": {"biological_target": "T1, Speckle-type POZ protein-Bromodomain-containing protein 4", "assay": "PROTAC activity at SPOP/BRD4-L in human HT-29 cells assessed as induction of BRD4 long isoform degradation by measuring fold change at 0.313 uM incubated for 24 hrs by Western blotting analysis (reference value: 1.00)", "assay_type": "cell-based"}, "[6]": {"biological_target": "T1, Speckle-type POZ protein-Bromodomain-containing protein 4", "assay": "PROTAC activity at SPOP/BRD4-L in human HT-29 cells assessed as induction of BRD4 long isoform degradation by measuring fold change at 0.625 uM incubated for 24 hrs by Western blotting analysis (reference value: 1.00)", "assay_type": "cell-based"}, "[7]": {"biological_target": "T1, Speckle-type POZ protein-Bromodomain-containing protein 4", "assay": "PROTAC activity at SPOP/BRD4-L in human HT-29 cells assessed as induction of BRD4 long isoform degradation by measuring fold change at 2.5 uM incubated for 24 hrs by Western blotting analysis (reference value: 1.00)", "assay_type": "cell-based"}, "[8]": {"biological_target": "T1, Speckle-type POZ protein-Bromodomain-containing protein 4", "assay": "PROTAC activity at SPOP/BRD4-L in human HT-29 cells assessed as induction of BRD4 long isoform degradation by measuring fold change at 10 uM incubated for 24 hrs by Western blotting analysis (reference value: 1.00)", "assay_type": "cell-based"}, "[9]": {"biological_target": "T1, Speckle-type POZ protein-Bromodomain-containing protein 4", "assay": "PROTAC activity at SPOP/BRD4-S in human HT-29 cells assessed as induction of BRD4 short isoform degradation by measuring fold change at 0.625 uM incubated for 24 hrs by Western blotting analysis (reference value: 1.00)", "assay_type": "cell-based"}, "[10]": {"biological_target": "T1, Speckle-type POZ protein-Bromodomain-containing protein 4", "assay": "PROTAC activity at SPOP/BRD4-S in human HT-29 cells assessed as induction of BRD4 short isoform degradation by measuring fold change at 2.5 uM incubated for 24 hrs by Western blotting analysis (reference value: 1.00)", "assay_type": "cell-based"}, "[11]": {"biological_target": "T1, Speckle-type POZ protein-Bromodomain-containing protein 4", "assay": "PROTAC activity at SPOP/BRD4-S in human HT-29 cells assessed as induction of BRD4 short isoform degradation by measuring fold change at 10 uM incubated for 24 hrs by Western blotting analysis (reference value: 1.00)", "assay_type": "cell-based"}, "[12]": {"biological_target": "T3, Speckle-type POZ protein-Bromodomain-containing protein 3 (Homo sapiens) (UniProt Q15059+O43791)", "T3 sequence (O43791 whole entry, looked up)": "as the sequence (O43791 whole entry, looked up, other chains not shown, canonical isoform) above", "T3 sequence (Q15059 whole entry, looked up)": "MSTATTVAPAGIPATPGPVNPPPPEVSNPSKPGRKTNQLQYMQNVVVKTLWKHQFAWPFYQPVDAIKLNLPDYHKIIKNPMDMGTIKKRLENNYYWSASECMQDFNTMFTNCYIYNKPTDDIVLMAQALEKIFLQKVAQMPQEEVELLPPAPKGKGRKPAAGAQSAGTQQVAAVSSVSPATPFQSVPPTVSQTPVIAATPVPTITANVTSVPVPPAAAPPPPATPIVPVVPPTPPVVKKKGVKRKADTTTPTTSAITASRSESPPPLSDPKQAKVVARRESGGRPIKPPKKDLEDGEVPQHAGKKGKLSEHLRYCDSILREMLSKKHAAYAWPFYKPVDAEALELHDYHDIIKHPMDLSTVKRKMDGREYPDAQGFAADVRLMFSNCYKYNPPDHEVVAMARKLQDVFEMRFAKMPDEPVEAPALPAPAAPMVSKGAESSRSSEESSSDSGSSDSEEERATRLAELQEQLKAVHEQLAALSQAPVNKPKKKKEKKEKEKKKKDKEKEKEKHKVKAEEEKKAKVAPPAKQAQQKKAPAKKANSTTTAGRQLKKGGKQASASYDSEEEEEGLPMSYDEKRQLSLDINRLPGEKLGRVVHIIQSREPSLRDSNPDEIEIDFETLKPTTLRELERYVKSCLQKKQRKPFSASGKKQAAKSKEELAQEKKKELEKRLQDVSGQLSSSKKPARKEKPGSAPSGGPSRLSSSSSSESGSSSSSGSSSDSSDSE", "assay": "PROTAC activity at SPOP/BRD3 in human HT-29 cells assessed as induction of BRD3 degradation by measuring fold change at 2.5 uM incubated for 24 hrs by Western blot analysis (reference value: 1.00)", "assay_type": "cell-based"}, "[13]": {"biological_target": "T3, Speckle-type POZ protein-Bromodomain-containing protein 3 (Homo sapiens)", "assay": "PROTAC activity at SPOP/BRD3 in human HT-29 cells assessed as induction of BRD3 degradation by measuring fold change at 5 uM incubated for 24 hrs by Western blot analysis (reference value: 1.00)", "assay_type": "cell-based"}, "[14]": {"biological_target": "T3, Speckle-type POZ protein-Bromodomain-containing protein 3 (Homo sapiens)", "assay": "PROTAC activity at SPOP/BRD3 in human HT-29 cells assessed as induction of BRD3 degradation by measuring fold change at 10 uM incubated for 24 hrs by Western blot analysis (reference value: 1.00)", "assay_type": "cell-based"}, "[15]": {"biological_target": "T4, Speckle-type POZ protein-Bromodomain-containing protein 2 (Homo sapiens) (UniProt P25440+O43791)", "T4 sequence (O43791 whole entry, looked up)": "as the sequence (O43791 whole entry, looked up, other chains not shown, canonical isoform) above", "T4 sequence (P25440 whole entry, looked up)": "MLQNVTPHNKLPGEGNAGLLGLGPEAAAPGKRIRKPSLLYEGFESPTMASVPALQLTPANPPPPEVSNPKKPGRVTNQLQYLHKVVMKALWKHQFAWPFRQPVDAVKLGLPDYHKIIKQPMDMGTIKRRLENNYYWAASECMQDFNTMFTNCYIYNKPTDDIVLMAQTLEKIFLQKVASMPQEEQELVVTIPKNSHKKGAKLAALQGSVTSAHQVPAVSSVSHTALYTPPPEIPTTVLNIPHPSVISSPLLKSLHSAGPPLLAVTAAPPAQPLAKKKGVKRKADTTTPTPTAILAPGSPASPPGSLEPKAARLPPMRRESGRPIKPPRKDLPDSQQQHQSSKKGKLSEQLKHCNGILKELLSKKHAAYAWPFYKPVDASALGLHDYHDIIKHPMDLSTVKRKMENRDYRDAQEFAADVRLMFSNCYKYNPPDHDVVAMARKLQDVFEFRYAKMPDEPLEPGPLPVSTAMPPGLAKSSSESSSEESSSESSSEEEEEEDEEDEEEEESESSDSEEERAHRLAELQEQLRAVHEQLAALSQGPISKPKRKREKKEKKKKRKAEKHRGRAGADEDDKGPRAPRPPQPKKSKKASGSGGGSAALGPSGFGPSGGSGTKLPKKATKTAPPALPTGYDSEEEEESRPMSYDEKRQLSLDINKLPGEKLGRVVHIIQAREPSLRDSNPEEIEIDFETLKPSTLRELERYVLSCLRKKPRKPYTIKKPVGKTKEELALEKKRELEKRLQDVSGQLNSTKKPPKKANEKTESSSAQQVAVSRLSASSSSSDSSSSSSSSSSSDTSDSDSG", "assay": "PROTAC activity at SPOP/BRD2 in human HT-29 cells assessed as induction of BRD2 degradation by measuring fold change at 0.156 uM incubated for 24 hrs by Western blot analysis (reference value: 1.00)", "assay_type": "cell-based"}, "[16]": {"biological_target": "T4, Speckle-type POZ protein-Bromodomain-containing protein 2 (Homo sapiens)", "assay": "PROTAC activity at SPOP/BRD2 in human HT-29 cells assessed as induction of BRD2 degradation by measuring fold change at 1.25 uM incubated for 24 hrs by Western blot analysis (reference value: 1.00)", "assay_type": "cell-based"}, "[17]": {"biological_target": "T2, Bromodomain-containing protein 4", "assay": "Inhibition of BRD4 in human HT-29 cells assessed as decrease in c-MYC protein level by measuring fold change at 5 uM incubated for 24 hrs by Western blot analysis (reference value: 1.00)", "assay_type": "cell-based"}, "[18]": {"biological_target": "T4, Speckle-type POZ protein-Bromodomain-containing protein 2 (Homo sapiens)", "assay": "PROTAC activity at SPOP/BRD2 in human HT-29 cells assessed as induction of BRD2 degradation at 5 uM measured after >=48 hrs by Western blot analysis", "assay_type": "cell-based"}, "HT-29 [19]": {"tested_on": "HT-29", "assay": "Effect on BRD2 mRNA level in human HT-29 cells at 1 to 10 uM incubated for 24 hrs by RT-qPCR analysis", "assay_type": "functional, cell-based", "settings": "dose 1-10 µM"}, "[20]": {"biological_target": "T1, Speckle-type POZ protein-Bromodomain-containing protein 4", "assay": "PROTAC activity at SPOP/BRD4-S in human MDA-MB-231 cells assessed as induction of BRD4 short isoform degradation at 0.1 to 5 uM incubated for 24 hrs by Western blotting analysis", "assay_type": "cell-based", "settings": "dose 0.1-5 µM"}, "[21]": {"biological_target": "T1, Speckle-type POZ protein-Bromodomain-containing protein 4", "assay": "PROTAC activity at SPOP/BRD4-S in human HT-29 cells assessed as induction of BRD4 short isoform degradation at 5 uM preincubated with MS1262 for 2 hrs followed by compound addition and measured after 24 hrs by Western blot analysis", "assay_type": "cell-based"}, "[22]": {"biological_target": "T1, Speckle-type POZ protein-Bromodomain-containing protein 4", "assay": "PROTAC activity at SPOP/BRD4-S in human HT-29 cells assessed as induction of BRD4 short isoform degradation at 5 uM preincubated with JQ1 for 2 hrs followed by compound addition and measured after 24 hrs by Western blot analysis", "assay_type": "cell-based"}, "[23]": {"biological_target": "T1, Speckle-type POZ protein-Bromodomain-containing protein 4", "assay": "PROTAC activity at SPOP/BRD4-S in human HT-29 cells assessed as induction of BRD4 short isoform degradation at 5 uM preincubated with MLN4924 for 2 hrs followed by compound addition and measured after 24 hrs by Western blot analysis", "assay_type": "cell-based"}, "HT-29 [24]": {"tested_on": "HT-29", "assay": "Antiproliferative activity against human HT-29 cells assessed as cell growth inhibition incubated for 3 days by WST-8 reagent based assay", "assay_type": "functional"}, "PNT2": {"tested_on": "PNT2", "assay": "Cytotoxicity against human PNT2 assessed as reduction in cell growth at 0.021 to 10 uM incubated for 72 hrs by WST-8 reagent based assay", "assay_type": "toxicity", "settings": "pnt2, 72 h, dose 0.021-10 µM"}}, "note": "Activity calls are given as the source filed them. The rule behind the calls is not given here.", "data": [{"compound": "COc1cc2c(NC3CCN(CCCC(=O)NCCCCCCCCCCNC(=O)C[C@@H]4N=C(c5ccc(Cl)cc5)c5c(sc(C)c5C)-n5c(C)nnc54)CC3)cc(N3CCOCC3)nc2cc1OCCCN1CCCC1", "values": [{"measurement": "Activity", "setting": "[1]", "value": "Dose-dependent-effect"}, {"measurement": "DC50", "setting": "[1]", "value": 6.2, "unit": "µM"}, {"measurement": "Kd", "setting": "[2]", "value": 0.2, "unit": "µM"}, {"measurement": "Emax", "setting": "[3]", "value": 63, "unit": "%"}, {"measurement": "fold change (FC)", "setting": "[4]", "value": 1.2}, {"measurement": "fold change (FC)", "setting": "[5]", "value": 1.3}, {"measurement": "fold change (FC)", "setting": "[6]", "value": 1.2}, {"measurement": "fold change (FC)", "setting": "[7]", "value": 1.2}, {"measurement": "fold change (FC)", "setting": "[8]", "value": 0.6}, {"measurement": "fold change (FC)", "setting": "[9]", "value": 0.9}, {"measurement": "fold change (FC)", "setting": "[10]", "value": 0.5}, {"measurement": "fold change (FC)", "setting": "[11]", "value": 0.3}, {"measurement": "fold change (FC)", "setting": "[12]", "value": 0.7}, {"measurement": "fold change (FC)", "setting": "[13]", "value": 0.6}, {"measurement": "fold change (FC)", "setting": "[14]", "value": 0.5}, {"measurement": "fold change (FC)", "setting": "[15]", "value": 1.3}, {"measurement": "fold change (FC)", "setting": "[16]", "value": 1.1}, {"measurement": "fold change (FC)", "setting": "[17]", "value": 0.03}, {"measurement": "Activity", "setting": "[18]", "value": "Active"}, {"measurement": "Activity", "setting": "HT-29 [19]", "value": "inactive"}, {"measurement": "Activity", "setting": "[20]", "value": "Active"}, {"measurement": "Activity", "setting": "[21]", "value": "inactive"}, {"measurement": "Activity", "setting": "[22]", "value": "inactive"}, {"measurement": "Activity", "setting": "[23]", "value": "inactive"}, {"measurement": "GI50", "setting": "HT-29 [24]; HT-29, 72 h, time 3 day", "value": 4.5, "unit": "µM"}, {"measurement": "Activity", "setting": "HT-29 [24]; time 3.0 day", "value": "Dose-dependent-effect"}, {"measurement": "Activity", "setting": "PNT2", "value": "Non-toxic"}]}]}
